Laboratory results taken from US12146183B2, “Compound and a method for identifying a protein using said compound” (CITY UNIVERSITY OF HONG KONG, priority 2020, dated 2024).

How the values were obtained:
Assay type in all cases: biochemical
Sirt2 [1] = molecular target: T1, Sirt2 (Homo sapiens, UniProt Q8IXJ6); experiment: HPLC delipoylation assay of lipoylated peptides with Sirt2; settings: Sirt2 + NAD+, 37° C., monitored at 280 nm after 40 min
T1 construct: made in house
T1 sequence (Q8IXJ6 1-389): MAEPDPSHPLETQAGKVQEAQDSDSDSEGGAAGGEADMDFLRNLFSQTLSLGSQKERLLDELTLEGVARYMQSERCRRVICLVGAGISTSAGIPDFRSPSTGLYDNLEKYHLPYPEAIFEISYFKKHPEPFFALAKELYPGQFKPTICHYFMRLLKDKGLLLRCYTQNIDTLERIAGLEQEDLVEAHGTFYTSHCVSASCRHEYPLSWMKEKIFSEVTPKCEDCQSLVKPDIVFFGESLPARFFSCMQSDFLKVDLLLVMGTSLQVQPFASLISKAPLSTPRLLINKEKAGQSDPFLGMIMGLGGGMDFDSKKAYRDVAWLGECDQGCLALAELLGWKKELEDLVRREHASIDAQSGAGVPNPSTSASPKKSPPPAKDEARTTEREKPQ
Procedure: A total of 11 lipoylated peptides (KAlip-1 to KAlip-11) were synthesised. The peptide sequences were selected from proteins that have been reported as being lipoylated (PDH, KDH, BCKDH, and GCV) and non-lipoylated proteins (e.g., histone). The peptides were synthesized with a standard Fmoc solid phase synthesis approach and characterized by LC-MS. The delipoylation activity was then determined by an HPLC assay. Compared with non-putative peptides, putative lipoylated peptides appeared to be more efficiently hydrolyzed by Sirt2. For example, the delipoylated product of KAlip-1 (derived from histone) after 40 min was determined to be 59%, which is less than that of putative lipoylated substrates such as KAlip-5 and KAlip-6 (derived from PDH).
The lipoylated peptides KAlip-1 to -11 were incubated with sirtuin and cofactor NAD+ at 37° C. in 20 mM HEPES buffer (pH 8.0) containing 150 mM NaCl, 1 mM MgCl2, and 2.7 mM KCl. The reaction volume was set to 50 μL. At each specific reaction time point, the reaction mixtures were quenched by adding 250 μL of methanol. The reactions were vortexed and centrifuged. Supernatant was collected and then analysed by reverse phase HPLC. The new peak generated was collected for ESI-MS or MALDI-TOF-MS analysis directly.

Sirt2 [2] = molecular target: T1, Sirt2; experiment: Steady-state kinetic study of lipoylated peptides with Sirt2 (HPLC); settings: relative to KAlip-1
Procedure: The delipoylation activity of HDAC8 was further examined using KAlip-5 and KAlip-1. […] A more detailed assessment of the enzymatic delipoylation reaction was performed. Time-dependent experiments and steady-state kinetics studies were conducted of KAlip-1, 5, 8, and 10 with Sirt2 (Table 1).
To determine the values of kcat, and Km, purified Sirt2 with 400 μM NAD+ was incubated with different concentrations of lipoylated peptide (0-120 μM) in 20 mM HEPES buffer (pH 8.0) containing 150 mM NaCl, 1 mM MgCl2, and 2.7 mM KCl at 37° C. for 10 min (KAlip-1 and KAlip-10) or 5 min (KAlip-5 and KAlip-8). The reactions were quenched by adding 250 μL of methanol and then applied for HPLC analysis with a linear gradient of 5% to 85% B (acetonitrile) for 30 min. The generated delipoylated product was quantified based on the peak area monitored at 280 nm. The kcat, and Km, values were calculated by curve-fitting Vinitiai/[E] versus [S]. The experiments were conducted in duplicate.

Sirt1 = molecular target: T2, Sirt1 (Homo sapiens, UniProt Q96EB6); experiment: Fluorimeter delipoylation assay of probe KTlip with Sirt1; settings: Sirt1, 37° C., HEPES buffer pH 8.0
T2 construct: made in house
T2 sequence (Q96EB6 1-747): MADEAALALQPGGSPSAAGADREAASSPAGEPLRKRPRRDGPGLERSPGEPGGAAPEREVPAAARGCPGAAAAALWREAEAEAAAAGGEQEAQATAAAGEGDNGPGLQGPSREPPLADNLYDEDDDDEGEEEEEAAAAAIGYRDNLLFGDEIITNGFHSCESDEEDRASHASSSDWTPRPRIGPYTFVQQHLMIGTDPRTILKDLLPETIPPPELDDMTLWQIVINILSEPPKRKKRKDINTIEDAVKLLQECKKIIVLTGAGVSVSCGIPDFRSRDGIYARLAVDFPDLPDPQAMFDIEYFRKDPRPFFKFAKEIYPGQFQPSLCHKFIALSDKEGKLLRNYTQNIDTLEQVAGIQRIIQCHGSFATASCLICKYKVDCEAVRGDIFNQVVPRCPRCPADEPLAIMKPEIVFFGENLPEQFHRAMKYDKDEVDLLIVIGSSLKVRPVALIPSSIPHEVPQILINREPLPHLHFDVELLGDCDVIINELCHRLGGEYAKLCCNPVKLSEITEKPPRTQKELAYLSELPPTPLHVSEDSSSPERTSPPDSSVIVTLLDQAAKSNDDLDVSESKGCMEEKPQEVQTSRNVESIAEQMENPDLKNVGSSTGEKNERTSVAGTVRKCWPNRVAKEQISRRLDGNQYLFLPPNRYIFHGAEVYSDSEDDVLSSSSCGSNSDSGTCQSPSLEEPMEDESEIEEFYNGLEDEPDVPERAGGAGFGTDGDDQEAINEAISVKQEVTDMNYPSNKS
Procedure: (§1) The capacity of HDACs to recognize and remove the lipoyl group of KTlip was examined by a fluorimeter assay. KTlip was incubated with various HDACs at 37° C. in HEPES buffer (pH 8.0). The fluorescence of the enzymatic reactions was then measured accordingly. […] Further HPLC and MS analysis confirmed that the molecular weight of the newly generated peak corresponded to the expected tandem de-lipoylated/exchanged product. […] After enzymatic reaction with Sirt2, a shift of peak absorption from 380 nm to 480 nm was clearly observed. Through detailed kinetic study, the first-order rate constant of the reaction was determined to be 0.013 min-1. The Km value of KTlip obtained from the fluorescent method matched well with that from the traditional HPLC method, underscoring that probe KTlip can serve as a useful tool for detecting enzymatic delipoylation activity.
(§2) The probe KTlip was incubated with sirtuin and NAD+ at 37° C. in 20 mM HEPES buffer (pH 8.0) containing 150 mM NaCl, 1 mM MgCl2, and 2.7 mM KCl. The enzymatic reaction volume was 50 μL. When the enzymatic reaction was complete, the reaction was applied for absorption and fluorescence measurement. The parameter set for absorbance measurement was as follows: UV-visible light, collection region: 300-550 nm. The parameter set for fluorescence measurements was as follows: λex=480 nm, slit width: 5 nm, collection region: 510-600 nm.

HDAC8 = molecular target: T3, HDAC8 (Homo sapiens, UniProt Q9BY41); experiment: Fluorimeter and HPLC/MS delipoylation assay of probe KTlip with HDAC8
T3 sequence (Q9BY41 1-377): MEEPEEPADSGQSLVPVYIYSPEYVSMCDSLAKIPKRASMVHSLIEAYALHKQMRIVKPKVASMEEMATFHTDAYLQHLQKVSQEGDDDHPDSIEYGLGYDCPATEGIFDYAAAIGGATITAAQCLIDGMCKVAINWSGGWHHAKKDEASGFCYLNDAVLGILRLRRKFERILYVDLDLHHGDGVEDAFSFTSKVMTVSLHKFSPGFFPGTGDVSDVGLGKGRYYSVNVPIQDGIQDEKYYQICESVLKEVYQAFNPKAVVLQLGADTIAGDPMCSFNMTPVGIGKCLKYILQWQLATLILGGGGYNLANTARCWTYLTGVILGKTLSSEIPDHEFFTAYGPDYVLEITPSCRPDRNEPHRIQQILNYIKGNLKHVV
Procedure: as §1, §2

Sirt6 = molecular target: T4, Sirt6 (Homo sapiens, UniProt Q8N6T7); experiment: Fluorimeter delipoylation assay of probe KTlip with Sirt6; settings: Sirt6, 37° C., HEPES buffer pH 8.0
T4 construct: made in house
T4 sequence (Q8N6T7 whole entry, species assumed): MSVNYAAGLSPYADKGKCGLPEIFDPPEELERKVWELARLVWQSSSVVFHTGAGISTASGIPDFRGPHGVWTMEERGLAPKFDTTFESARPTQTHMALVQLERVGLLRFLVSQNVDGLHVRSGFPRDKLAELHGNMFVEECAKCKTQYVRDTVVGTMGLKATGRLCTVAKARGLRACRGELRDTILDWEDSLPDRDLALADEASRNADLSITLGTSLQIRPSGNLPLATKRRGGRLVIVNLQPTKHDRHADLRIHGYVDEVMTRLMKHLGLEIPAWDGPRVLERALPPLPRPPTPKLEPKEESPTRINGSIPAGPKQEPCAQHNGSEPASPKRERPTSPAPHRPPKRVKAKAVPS
Procedure: as §1, §2

Sirt3 = molecular target: T5, Sirt3 (Homo sapiens, UniProt Q9NTG7); experiment: Fluorimeter delipoylation assay of probe KTlip with Sirt3; settings: Sirt3, 37° C., HEPES buffer pH 8.0
T5 construct: made in house
T5 sequence (Q9NTG7 1-399): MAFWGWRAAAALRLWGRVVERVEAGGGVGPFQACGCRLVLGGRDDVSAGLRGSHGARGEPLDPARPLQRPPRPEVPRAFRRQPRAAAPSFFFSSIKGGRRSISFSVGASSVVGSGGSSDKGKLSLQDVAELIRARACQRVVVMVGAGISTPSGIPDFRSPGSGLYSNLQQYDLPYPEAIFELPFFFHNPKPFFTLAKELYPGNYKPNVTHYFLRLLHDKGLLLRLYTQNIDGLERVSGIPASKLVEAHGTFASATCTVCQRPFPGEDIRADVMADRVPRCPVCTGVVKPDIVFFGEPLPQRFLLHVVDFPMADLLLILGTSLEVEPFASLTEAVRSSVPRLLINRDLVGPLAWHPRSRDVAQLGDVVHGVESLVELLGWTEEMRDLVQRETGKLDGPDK
Procedure: as §1, §2

Sirt5 = molecular target: T6, Sirt5 (Homo sapiens, UniProt Q9NXA8); experiment: Fluorimeter delipoylation assay of probe KTlip with Sirt5; settings: Sirt5, 37° C., HEPES buffer pH 8.0
T6 construct: made in house
T6 sequence (Q9NXA8 37-310): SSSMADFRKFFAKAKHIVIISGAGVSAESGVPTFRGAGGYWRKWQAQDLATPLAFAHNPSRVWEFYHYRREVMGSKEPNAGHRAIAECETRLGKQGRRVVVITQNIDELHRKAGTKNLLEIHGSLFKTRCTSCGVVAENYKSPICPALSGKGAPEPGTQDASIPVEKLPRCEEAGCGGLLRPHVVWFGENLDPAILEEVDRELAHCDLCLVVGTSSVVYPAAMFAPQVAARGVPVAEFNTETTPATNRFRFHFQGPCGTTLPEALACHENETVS
Procedure: as §1, §2

Sirt2 [3] = molecular target: T1, Sirt2; experiment: Fluorimeter delipoylation assay of probe KTlip with Sirt2
Procedure: as §1, with “The Km value of KTlip obtained from the fluorescent method matched well with that from the traditional HPLC method, underscoring that probe KTlip can serve as a useful tool for detecting enzymatic delipoylation activity.” left out
as §2, with “The enzymatic reaction volume was 50 μL.” left out
The rate constant was calculated by fitting the fluorescence data to the following equation: Fluorescence intensity=1−exp(−kt) Enzymatic Reaction with Lipoylated Peptides.

| Molecule | Delipoylation product (HPLC yield of delipoylated product) (Sirt2 [1]) | Catalytic efficiency of Sirt2 compared with nonputative H3K9 lipoyl peptide (KAlip-1) (Sirt2 [2]) | Fluorescence signal (Sirt1) | Fluorescence increase (HDAC8; HDAC8, 37° C., HEPES buffer pH 8.0) | De-lipoylated product (HPLC and MS analysis) (HDAC8; HDAC8 enzymatic reaction conditions) | Fluorescence increase (Sirt6) | Fluorescence increase (Sirt3) | Fluorescence increase (Sirt5) | Fluorescence increase (Sirt2 [3]; Sirt2, 37° C., HEPES buffer pH 8.0) | First-order rate constant of the reaction (Sirt2 [3]; Sirt2, fluorescence fit) |
| --- | --- | --- | --- | --- | --- | --- | --- | --- | --- | --- |
| ALESVK(lip)AASEWW [KAlip-10] | 71% | slightly higher | – | – | – | – | – | – | – | – |
| CC(C)(C)OC(=O)N[C@@H](CCCCNC(=O)CCCCC1CCSS1)C(=O)NCCOCCOc1ccc([N+](=O)[O-])c2nonc12 (stereo partly shown) [KTlip] | – | – | much lower fluorescence signal | did not show a noticeable fluorescence increase | No de-lipoylated product was observed | did not show a noticeable fluorescence increase | did not show a noticeable fluorescence increase | did not show a noticeable fluorescence increase | 60 fold | 0.013 min⁻¹ |
